IC50 data for 29 compounds are collected here from US10654868B2, “Dihydropyrazole azepine compound serving as Akt inhibitor” (HARBIN ZHENBAO PHARMACEUTICAL CO., LTD., priority 2016, dated 2020).

By IC50 is commonly meant the concentration that inhibits the measured activity by half. A high value points to weaker potency.

The target of one test is T1, Akt1 (Homo sapiens, UniProt P31749).
T1 construct: purchased life technology lot11629928C (lot number only, catalogue number not given)
Briefly: Akt1 kinase inhibition, LANCE TR-FRET. Format: biochemical. As for the experimental part:
(§1) Study 1: The Inhibitory Effect of the Compounds on the Activity of Akt1, Akt2 and Akt3
Akt1 protein (life technology # lot11629928C)
(§2) In this experiment, a homogeneous time-resolved fluorescence […] energy transfer (LANCE TR-FRET®) method was used. In the assay plate, enzymes, biotinylated polypeptide substrates and compound to be tested were mixed, and ATP was added to initiate the reaction and the mixture was incubated. After that, EDTA was added to terminate the reaction while an Eu-labeled antibody was added to carry out the reaction and the reaction was then detected. The assay plate was analyzed by PE company's Envision, and the analysis mode was TR-FRET. The data were represented by fluorescence signals at 665 nm and 615 nm, respectively.
(§3) Compound formulation: compound to be tested and the reference compound were diluted with 100% DMSO, the initial concentration of the compound was 10 uM, and diluted by 10 times in a 3-fold gradient. Transfer the compound to the cell plate and duplicate each well.
(§4) Kinase assay: the enzyme and substrate were mixed with different concentrations of pre-diluted compounds. […] Leave at room temperature for 15 min and diplicate each concentration. ATP was added, and the final concentrations were 36 uM, 360 uM and 160 uM in Akt1, Akt2, and Akt3 kinase reactions, respectively, and the reaction was carried out for 90 min at room temperature (in which negative and positive controls were set). After the reaction was completed, the antibody was added and the mixture was detected, and the cells were incubated for 60 min at room temperature, and then collected by Evnvision. Data analysis and fitting according to *Lfit5 software.
Background: In TR-FRET formats the signal depends on donor and acceptor labels being close together.

Another test concerns the target T2, Akt2 (Homo sapiens, UniProt P31751).
T2 construct: purchased life technology lot 28870GG (lot number only, catalogue number not given)
Put plainly: Akt2 kinase inhibition, LANCE TR-FRET. Format: biochemical. As to conditions: Akt2 2 nM, ATP 360 uM, 90 min at room temperature. As to the method:
as §1
Akt2 protein (life technology # lot 28870GG)
as §2, §3, §4

Another test concerns the target T3, Akt3 (Homo sapiens, UniProt Q9Y243).
T3 construct: purchased life technology lot 1715050B (lot number only, catalogue number not given)
Briefly: Akt3 kinase inhibition, LANCE TR-FRET. Format: biochemical. Particulars: Akt3 2 nM, ATP 160 uM, 90 min at room temperature. As for the experimental part:
as §1
Akt3 protein (life technology # lot 1715050B)
as §2, §3, §4

The next test has as its system LNCaP cells. Briefly: LNCaP cell activity, CellTiter-Glo live cell detection. Format: cell-based. Particulars: Homo sapiens, 72 h, 1000 cells per well, incubated 3 days, starting concentration 10 uM. As for the experimental part: Study 2: inhibitory effects of compounds on LNCaP cell activity
The amount of ATP directly reflects the number and the state of the cells, and the number of live cells can be detected by quantitatively measuring ATP. The live cell assay kit contains luciferase and its substrate. Through the participation of ATP, luciferase can catalyze the substrate, emit a stable optical signal, and the amount of ATP in the cell was determined by detecting the intensity of the signal. Wherein, the optical signal is proportional to the amount of ATP in the cell, and ATP is positively correlated with the number of live cells, so that the cell proliferation can be detected. The assay board is analyzed by PE company's Envision.
LNCaP cell was separately seeded in a 384-well plate, each well contains 1000 cells. The cell plate was placed in a carbon dioxide incubator and incubated overnight.
A duplicated experiment was performed with 10 concentrations of compound in a 3-fold dilution with Bravo.
Compound was transferred to the cell plate with a starting concentration of 10 uM. The cell plate was incubated in a carbon dioxide incubator for 3 days.
The Promega CellTiter-Glo reagent was added to the cell plate and incubated for 10 min at room temperature to stabilize the optical signal. Read the data by a PerkinElmer Envision multi-label analyzer.

T3 sequence (Q9Y243 whole entry): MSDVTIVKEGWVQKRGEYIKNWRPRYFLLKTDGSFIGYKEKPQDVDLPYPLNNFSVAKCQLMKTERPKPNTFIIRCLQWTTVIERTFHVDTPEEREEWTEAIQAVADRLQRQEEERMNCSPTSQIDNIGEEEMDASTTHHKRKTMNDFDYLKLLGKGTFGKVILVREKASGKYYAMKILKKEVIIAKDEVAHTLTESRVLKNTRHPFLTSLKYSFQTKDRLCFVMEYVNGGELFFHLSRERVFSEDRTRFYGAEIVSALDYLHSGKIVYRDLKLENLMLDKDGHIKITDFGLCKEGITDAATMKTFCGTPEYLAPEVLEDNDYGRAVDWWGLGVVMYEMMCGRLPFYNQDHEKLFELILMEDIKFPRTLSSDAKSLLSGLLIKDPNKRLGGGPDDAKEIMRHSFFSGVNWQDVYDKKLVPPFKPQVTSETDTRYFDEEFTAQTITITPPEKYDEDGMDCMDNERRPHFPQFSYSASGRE
T2 sequence (P31751 whole entry): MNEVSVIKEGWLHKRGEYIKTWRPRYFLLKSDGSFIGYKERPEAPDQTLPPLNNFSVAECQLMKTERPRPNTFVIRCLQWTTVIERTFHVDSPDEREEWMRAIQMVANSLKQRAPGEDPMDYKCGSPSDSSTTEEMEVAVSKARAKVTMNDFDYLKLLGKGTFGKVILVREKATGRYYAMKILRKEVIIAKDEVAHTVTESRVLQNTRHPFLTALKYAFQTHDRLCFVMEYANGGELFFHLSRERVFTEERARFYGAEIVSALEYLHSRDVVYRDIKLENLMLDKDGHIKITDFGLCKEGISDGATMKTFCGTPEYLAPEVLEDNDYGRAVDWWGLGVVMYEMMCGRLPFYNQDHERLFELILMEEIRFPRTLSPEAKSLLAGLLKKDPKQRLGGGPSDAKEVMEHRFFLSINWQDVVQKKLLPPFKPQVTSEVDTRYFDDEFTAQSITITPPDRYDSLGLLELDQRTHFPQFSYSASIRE
T1 sequence (P31749 whole entry): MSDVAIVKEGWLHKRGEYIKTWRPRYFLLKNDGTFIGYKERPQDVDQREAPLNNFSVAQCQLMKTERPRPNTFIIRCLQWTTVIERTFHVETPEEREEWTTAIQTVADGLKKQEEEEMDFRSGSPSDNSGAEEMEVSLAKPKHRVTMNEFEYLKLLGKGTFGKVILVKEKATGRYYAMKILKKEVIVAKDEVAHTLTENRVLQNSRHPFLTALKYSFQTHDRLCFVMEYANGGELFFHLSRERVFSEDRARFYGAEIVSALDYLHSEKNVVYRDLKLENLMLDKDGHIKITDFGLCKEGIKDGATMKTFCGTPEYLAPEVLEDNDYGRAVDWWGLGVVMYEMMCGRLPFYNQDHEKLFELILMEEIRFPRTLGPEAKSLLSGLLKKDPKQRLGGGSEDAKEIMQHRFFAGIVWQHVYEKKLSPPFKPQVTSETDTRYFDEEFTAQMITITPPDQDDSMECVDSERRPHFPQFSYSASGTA

For the compound `NC[C@H](Cc1cccc(F)c1)NC(=O)c1cc2c(s1)CCCn1ncc(Cl)c1-2` [Embodiment 1], the IC50 at Akt1 amounted to 0.36 nM; against Akt2, 24 nM; against Akt3 it was 21 nM; in the test on LNCaP cells, 58 nM.

Regarding `NC[C@H](Cc1cccnc1)NC(=O)c1cc2c(s1)CCCn1ncc(Cl)c1-2` [Embodiment 2], the 50% inhibitory concentration (IC50) was found to be 6.64 nM against Akt1, 266 nM against Akt2, 294 nM against Akt3 and 666 nM in the test with LNCaP cells.

As to `NC[C@H](Cc1ccncc1)NC(=O)c1cc2c(s1)CCCn1ncc(Cl)c1-2` [Embodiment 3], the 50% inhibitory concentration (IC50) stood at 39 nM against Akt1, 163 nM at Akt2, 1130 nM against Akt3 and 2010 nM in the test with LNCaP cells.

With `NC[C@H](Cc1cccc(Cl)c1)NC(=O)c1cc2c(s1)CCCn1ncc(Cl)c1-2` [Embodiment 4], the IC50 was determined as 0.6 nM against Akt1, 32 nM at Akt2, 40 nM against Akt3 and 182 nM with LNCaP cells.

Consider `NC[C@H](Cc1ccc(F)cc1F)NC(=O)c1cc2c(s1)CCCn1ncc(Cl)c1-2` [Embodiment 5], for which the IC50 at Akt1 was determined as 2.54 nM; against Akt2 it was 77 nM; against Akt3, 77 nM; in the test with LNCaP cells, 199 nM.

In the case of `NC[C@H](Cc1ccccc1F)NC(=O)c1cc2c(s1)CCCn1ncc(Cl)c1-2` [Embodiment 6], the IC50 on Akt1 was 3.78 nM; on Akt2, 101 nM; against Akt3, 95 nM; in the test on LNCaP cells, 297 nM.

Take `NC[C@H](Cc1ccc(F)c(F)c1)NC(=O)c1cc2c(s1)CCCn1ncc(Cl)c1-2` [Embodiment 7]: the IC50 on Akt1 is 0.71 nM; against Akt2, 19 nM; on Akt3, 24 nM; with LNCaP cells, 59 nM.

On to `NC[C@H](Cc1ccc(Cl)cc1)NC(=O)c1cc2c(s1)CCCn1ncc(Cl)c1-2` [Embodiment 8], for which the IC50 stood at 3.62 nM against Akt1, 107 nM against Akt2, 69 nM at Akt3 and 534 nM with LNCaP cells.

`NC[C@H](Cc1ccc(Cl)c(Cl)c1)NC(=O)c1cc2c(s1)CCCn1ncc(Cl)c1-2` [Embodiment 9]: the IC50 at Akt1 was determined as 1.39 nM; on Akt2, 25 nM; at Akt3, 44 nM; with LNCaP cells, 236 nM.

As for `NC[C@H](Cc1ccccc1C(F)(F)F)NC(=O)c1cc2c(s1)CCCn1ncc(Cl)c1-2` [Embodiment 10], the IC50 against Akt1 was 0.63 nM; against Akt2 it was 17 nM; against Akt3, 29 nM; in the test with LNCaP cells it was 159 nM.

With `NC[C@H](Cc1cccc(C(F)(F)F)c1)NC(=O)c1cc2c(s1)CCCn1ncc(Cl)c1-2` [Embodiment 11], the IC50 worked out at 2.28 nM against Akt1, 66 nM against Akt2, 80 nM against Akt3 and 287 nM with LNCaP cells.

With `CN(C)C[C@H](Cc1cccc(F)c1)NC(=O)c1cc2c(s1)CCCn1ncc(Cl)c1-2` [Embodiment 12], the IC50 on Akt1 came out at 116 nM; at Akt2 it was 4830 nM; at Akt3, 867 nM; with LNCaP cells it was 4890 nM.

`NC[C@@H](NC(=O)c1cc2c(s1)CCCn1ncc(Cl)c1-2)c1ccccc1` [Embodiment 13]: the IC50 against Akt1 was 11 nM; against Akt2 it was 188 nM; against Akt3, 189 nM; with LNCaP cells, 514 nM.

In the case of `NC[C@H](Cc1cccc(F)c1)NC(=O)c1cc2c(s1)CCCn1ncc(Br)c1-2` [Embodiment 14], the IC50 came to 0.33 nM against Akt1, 11 nM on Akt2, 34 nM against Akt3 and 36 nM in the test on LNCaP cells.

With `NC[C@H](Cc1ccc(F)c(F)c1F)NC(=O)c1cc2c(s1)CCCn1ncc(Br)c1-2` [Embodiment 15], the IC50 amounted to 0.67 nM at Akt1, 20 nM against Akt2, 16 nM against Akt3 and 85 nM with LNCaP cells.

In the case of `NC[C@H](Cc1cccc(F)c1F)NC(=O)c1cc2c(s1)CCCn1ncc(Br)c1-2` [Embodiment 16], the IC50 on Akt1 amounted to 0.85 nM; against Akt2 it was 45 nM; at Akt3, 45 nM; in the test with LNCaP cells, 233 nM.

Turning to `NC[C@H](Cc1cc(F)ccc1F)NC(=O)c1cc2c(s1)CCCn1ncc(Br)c1-2` [Embodiment 17], the concentration for half-maximal inhibition (IC50) came out at 0.68 nM against Akt1, 38 nM on Akt2, 41 nM on Akt3 and 230 nM in the test with LNCaP cells.

On to `NC[C@H](Cc1ccc(F)c(F)c1)NC(=O)c1cc2c(s1)CCCn1ncc(Br)c1-2` [Embodiment 18], for which the IC50 worked out at 0.27 nM against Akt1, 8 nM on Akt2, 10 nM against Akt3 and 77 nM in the test on LNCaP cells.

As to `NC[C@H](Cc1cc(F)cc(F)c1)NC(=O)c1cc2c(s1)CCCn1ncc(Br)c1-2` [Embodiment 19], the IC50 worked out at 0.03 nM on Akt1, 8 nM on Akt2, 8.7 nM against Akt3 and 23 nM with LNCaP cells.

For `NC[C@H](Cc1ccccn1)NC(=O)c1cc2c(s1)CCCn1ncc(Br)c1-2` [Embodiment 20], the IC50 on Akt1 is 11 nM; against Akt2 it was 428 nM; against Akt3, 374 nM; in the test with LNCaP cells, 487 nM.

With `NC[C@H](Cc1ccc(F)c(F)c1)NC(=O)c1cc2c(o1)CCCn1ncc(Cl)c1-2` [Embodiment 21], the IC50 on Akt1 was 13.3 nM; against Akt2, 312 nM; against Akt3, 98 nM; with LNCaP cells, 615 nM.

On to `Cc1cnn2c1-c1cc(C(=O)N[C@H](CN)Cc3cccc(F)c3)sc1CCC2` [Embodiment 22], for which the IC50 against Akt1 amounted to 2.18 nM; against Akt2, 26 nM; against Akt3 it was 60 nM; in the test with LNCaP cells, 61 nM.

`NC[C@H](Cc1cccc(F)c1)NC(=O)c1cc2c(s1)CCCn1ncc(-c3ccccc3)c1-2` [Embodiment 23]: the IC50 at Akt1 was found to be 8.84 nM; against Akt2 it was 372 nM; against Akt3, 52 nM; in the test with LNCaP cells it was 1340 nM.

Regarding `NC[C@H](Cc1cccc(F)c1)NC(=O)c1cc2c(s1)CCCn1ncc(-c3cccnc3)c1-2` [Embodiment 24], the IC50 worked out at 67.4 nM at Akt1, 1860 nM on Akt2, 398 nM against Akt3 and 3560 nM in the test on LNCaP cells.

`CCc1cnn2c1-c1cc(C(=O)N[C@H](CN)Cc3cccc(F)c3)sc1CCC2` [Embodiment 25]: the IC50 was determined as 5.22 nM against Akt1, 143 nM at Akt2, 83 nM on Akt3 and 389 nM in the test on LNCaP cells.

As to `NC[C@H](Cc1cccc(F)c1)NC(=O)c1cc2c(s1)CCCn1ncc(C(F)(F)F)c1-2` [Embodiment 27], the IC50 against Akt1 is 14.7 nM; at Akt2 it was 304 nM; at Akt3 it was 119 nM; in the test on LNCaP cells, 971 nM.

Consider `NC[C@H](Cc1cccc(F)c1)NC(=O)c1cc2c(s1)CCCn1ncc(F)c1-2` [Embodiment 28], for which the concentration for half-maximal inhibition (IC50) against Akt1 was determined as 33.3 nM; against Akt2, 589 nM; on Akt3 it was 286 nM; with LNCaP cells, 1420 nM.

With `NCC(CCc1ccccc1)NC(=O)c1cc2c(s1)CCCn1ncc(Cl)c1-2` (stereo not shown) [Embodiment 29], the IC50 at Akt1 worked out at 36 nM; against Akt2, 1100 nM; on Akt3, 783 nM; with LNCaP cells, 2620 nM.

In the case of `NC[C@H](Cc1ccc(F)c(F)c1)NC(=O)c1cc2c(s1)OCCn1ncc(Br)c1-2` [Embodiment 37], the half-maximal inhibitory concentration (IC50) is 1.73 nM on Akt1, 35 nM on Akt2 and 29 nM on Akt3.
